US20200352912A1, “ANTIMICROBIAL COMPOSITIONS AND METHODS OF USING THE SAME” (The Board Of Supervisors Of Louisiana State University And …, priority 2018, published 2020)

Tests used:
Type in all cases: cell-based, Staphylococcus aureus
S. aureus NRS383 = assay: planktonic antimicrobial assay (OD600 growth); conditions: 100 μg/ml (inhibitor-specific concentrations b175), OD600 up to 24 h
Procedure: (§1) Effect of COX enzyme inhibitors or PGE2 EP receptor antagonists on microbial growth. The antimicrobial activity of selective COX enzyme inhibitor or PGE2 EP receptor antagonist on the growth of C. albicans DAY185 (A), S. aureus NRS383 (B) and MRSA and MSSA clinical isolates (C). Growth of C. albicans and S. aureus was monitored for up to 24 h in medium alone or supplemented with DMSO or EP receptor antagonists or COX enzyme inhibitor at physiologically relevant concentrations. Data shown are representative of three independent experiments.
(§2) C. albicans and S. aureus were grown as described above. […] Cells were grown with shaking as described above, and 1 ml aliquots were removed each hour in duplicate and optical density at 600 nm measured (OD600) by spectrophotometer (Biomate 3S, Thermo Scientific).

[1] = tested on: clinical MRSA and MSSA strains isolated from a patient's catheter; assay: planktonic antimicrobial assay, clinical isolates
Procedure: as §1
Strains and growth conditions. The methicillin-resistant S. aureus strain NRS383 used in all experiments was obtained from the Network on Antimicrobial Resistance in S. aureus (NARSA) data bank. NRS383 is positive for the toxic shock syndrome toxin (tst) and 6-toxin genes. SJ-MRSA 6 and SJ-SA5 are methicillin-resistant (MRSA) and methicillin-sensitive (MSSA) clinical S. aureus strains respectively isolated from a patient's catheter. […]
as §2

S. aureus = assay: cytoplasmic leakage assay (OD260); conditions: 50 μg/ml
Procedure: S. aureus was grown shaking at 37° C. in PBS alone, with 50 μg/ml L-161, 982 or with 4 μg/ml Chlorhexidine (positive control). The appearance of nucleic acid in culture supernatants was measured by OD260 at the indicated times. Data are expressed as change in absorbance at 260 nm compared to control (AA260). Data presented is cumulative of two independent experiments.
Cytoplasmic leakage assay. Cytoplasmic leakage assays were performed as previously described with modifications (11). Briefly, S. aureus was cultured to mid-log phase in TSB with shaking at 37° C. Bacteria were then harvested and resuspended in PBS to a concentration of ˜108/ml. Cultures were treated with L-161,982 (50 μg/ml) or Chlorhexidine (4 μg/ml), a positive control, and incubated at 37° C. with shaking. Culture supernatants were monitored over time for cytoplasmic leakage via OD260 measurements using a spectrophotometer (Biomate 3S, Thermo Scientific). For this, aliquots were removed at 0.5, 1, 2, and 3 hours and centrifuged for 5 min at 10,000×g at room temperature to remove cellular debris before taking OD260 measurements. Negative control cultures containing no drug were used to calculate change in absorbance (AA260) at each time point.

CCCCc1nn(-c2ccccc2C(F)(F)F)c(=O)n1Cc1ccc(-c2ccccc2S(=O)(=O)NC(=O)c2sccc2C)cc1 [L-161, 982, N-[[4′-[[3-Butyl-1,5-dihydro-5-oxo-1-[2-(trifluoromethyl)phenyl]-4H-1,2,4-triazol-4-yl]methyl][1,1′-biphenyl]-2-yl]sulfonyl]-3-methyl-2-thiophenecarboxamide]
growth of S. aureus (S. aureus NRS383): significant inhibitory effect | growth of clinical MRSA and MSSA strains [1]: inhibited growth | OD260 values of culture supernatants (S. aureus): did not increase
